Experiment [1] deals with RAB-1 and PMK-1 (MAPK pathway). The experiment is described as follows: RT-PCR of RAB-1 and PMK-1 transcripts (MAPK pathway) in C. elegans. The settings on record: in vivo transcription after treatment; RF3 100 ppm, 2 days. The method, then: (§1) RNA preparation and reverse transcriptase-PCR(RT-PCR). Total RNA from batches of C. elegans were isolated from samples in the NGM medium at appropriate time intervals using an RNeasy mini kit (Qiagen). Subsequently, RNA (500 ng) from each sample was reverse-transcribed and PCR was performed using a Superscript One-step RT-PCR kit (Invitrogen). […] PCR products were run on 1.8% agarose gel and stained with 0.4 μg/ml ethidium bromide. Stained bands were visualized under UV light and photographed with a camera (Nikon […]).

Experiment [2] concerns wild-type C. elegans (N2). The experiment is described as follows: Lifespan analysis of C. elegans after treatment with test substances. It counts as in vivo. The settings on record: acetic acid and vitamins 50 ppm, RF3 and mushroom polysaccharide fractions 100 ppm (FIG. 1); 20° C.; versus water control. The source says:
Strains, bacteria, natural products and chemicals. The wild-type N2 strain of C. elegans were used in all experiments. The worms were maintained and cultured on nematode growth medium (NGM) agar plates or in liquid medium with E. coli OP50 as a food source. […] Contaminating food and worm debris were removed by sucrose floatation. In addition to OP50, two E. coli strains for RNAi were used (III-1N20 for TIR-1 RNAi and I-5M24 for DAF-16 RNAi). RF3, crude mycelium-powders of A. camphorate and H. erinaceus were prepared as described in previous papers. Each solution was diluted with deionized water to make test solutions of desired concentrations for various assays. Lifespan analysis after treatment with various substances.

For experiment [3], the system named is DAF-16. The experiment is described as follows: Semi-quantitative RT-PCR of DAF-16 transcripts in C. elegans. It counts as in vivo. The settings on record: day 2 after treatment; acetic acid 50 ppm, extracts 100 ppm; normalised to ACT-1. As to the method:
as §1

On to `CC(=O)O` [Acetic acid, acetic acid], for which the “MAPK pathway activation (RAB-1 and PMK-1 transcription levels)” value in experiment [1] is listed as “apparently not involved”. Besides, the “lifespan-extending effect on C. elegans” value in experiment [2] is “showed lifespan-extending effect”. Moreover, the DAF-16 expression result in experiment [3] is listed as “significant increase”.
